Test results: ChEMBL document CHEMBL1806407, “Site-directed mutagenesis provides insights into the selective binding of trityl derivatives to Plasmodium falciparum dUTPase” (Eur J Med Chem, 2011)

Key:
[1] = Selectivity index, ratio of Ki for recombinant Plasmodium falciparum dUTPase I117A mutant expressed in Escherichia coli BL21(DE3) cells to Ki for human dUTPase
[2] = Inhibition of recombinant wild type Plasmodium falciparum dUTPase expressed in Escherichia coli BL21(DE3) cells using dUTP as substrate by spectrophotometric analysis
dUTP pyrophosphatase [3] = biological target: dUTP pyrophosphatase (Plasmodium falciparum 3D7, UniProt Q8II92, F46A); assay: Inhibition of recombinant Plasmodium falciparum dUTPase F46A mutant expressed in Escherichia coli BL21(DE3) cells using dUTP as substrate by spectrophotometric analysis
[4] = biological target: T1, Deoxyuridine 5'-triphosphate nucleotidohydrolase, mitochondrial (Homo sapiens, UniProt P33316); assay: Inhibition of human dUTPase using dUTP as substrate by spectrophotometric analysis
T1 sequence (P33316 whole entry): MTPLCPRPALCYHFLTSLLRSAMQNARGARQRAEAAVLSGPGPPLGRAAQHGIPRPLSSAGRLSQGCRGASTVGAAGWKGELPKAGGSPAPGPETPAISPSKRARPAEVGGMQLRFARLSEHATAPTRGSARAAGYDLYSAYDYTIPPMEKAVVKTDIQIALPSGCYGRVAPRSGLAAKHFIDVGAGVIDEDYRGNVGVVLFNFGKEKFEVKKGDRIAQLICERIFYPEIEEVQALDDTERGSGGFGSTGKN

[5] = Selectivity index, ratio Ki for recombinant wild type Plasmodium falciparum dUTPase expressed in Escherichia coli BL21(DE3) cells to Ki for human dUTPase
[6] = Selectivity index, ratio of Ki for recombinant Plasmodium falciparum dUTPase F46A mutant expressed in Escherichia coli BL21(DE3) cells to Ki for human dUTPase
[7] = Selectivity index, ratio of Ki for recombinant Plasmodium falciparum dUTPase K96A mutant expressed in Escherichia coli BL21(DE3) cells to Ki for human dUTPase
dUTP pyrophosphatase [8] = biological target: dUTP pyrophosphatase (Plasmodium falciparum 3D7, UniProt Q8II92, I117A); assay: Inhibition of recombinant Plasmodium falciparum dUTPase I117A mutant expressed in Escherichia coli BL21(DE3) cells using dUTP as substrate by spectrophotometric analysis
Plasmodium falciparum = assay: Antimalarial activity against blood stage Plasmodium falciparum infected in human red blood cells […] by propidium iodide staining based microscopic analysis; format: functional, organism-based
dUTP pyrophosphatase [9] = biological target: dUTP pyrophosphatase (Plasmodium falciparum 3D7, UniProt Q8II92, K96A); assay: Inhibition of recombinant Plasmodium falciparum dUTPase K96A mutant expressed in Escherichia coli BL21(DE3) cells using dUTP as substrate by spectrophotometric analysis
Chain of dUTP pyrophosphatase (Plasmodium falciparum 3D7, UniProt Q8II92, K96A) (Q8II92 whole entry K96A): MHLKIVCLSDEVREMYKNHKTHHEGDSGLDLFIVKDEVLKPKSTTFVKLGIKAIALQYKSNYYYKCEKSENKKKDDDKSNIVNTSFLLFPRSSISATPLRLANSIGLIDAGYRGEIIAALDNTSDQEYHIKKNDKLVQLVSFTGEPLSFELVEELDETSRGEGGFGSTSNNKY

Chain of dUTP pyrophosphatase (Plasmodium falciparum 3D7, UniProt Q8II92, I117A) (Q8II92 whole entry I117A): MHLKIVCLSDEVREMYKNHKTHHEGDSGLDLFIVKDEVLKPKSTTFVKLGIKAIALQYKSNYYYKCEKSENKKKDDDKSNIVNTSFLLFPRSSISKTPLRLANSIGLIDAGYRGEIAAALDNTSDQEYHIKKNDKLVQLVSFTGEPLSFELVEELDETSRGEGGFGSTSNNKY
Chain of dUTP pyrophosphatase (Plasmodium falciparum 3D7, UniProt Q8II92, F46A) (Q8II92 whole entry F46A): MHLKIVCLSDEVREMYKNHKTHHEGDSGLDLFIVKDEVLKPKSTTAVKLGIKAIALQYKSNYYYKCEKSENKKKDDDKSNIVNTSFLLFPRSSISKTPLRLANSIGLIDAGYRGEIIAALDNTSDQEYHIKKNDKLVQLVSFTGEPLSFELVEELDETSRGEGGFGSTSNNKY

Row | Compound | Ratio Ki [1] | Ki [2] [µM] | Ki (dUTP pyrophosphatase [3]) [µM] | Ki [4] [µM] | Ratio Ki [5] | Ratio Ki [6] | Ratio Ki [7] | Ki (dUTP pyrophosphatase [8]) [µM] | IC50 (Plasmodium falciparum) [µM] | Ki (dUTP pyrophosphatase [9]) [µM]
1 | O=c1ccn([C@H]2C=C[C@@H](COC(c3ccccc3)(c3ccccc3)c3ccccc3)O2)c(=O)[nH]1 | 98 | 1.9 | 20.3 | 157 | 83 | 8 | 402 | 1.6 | > 11 | 0.39
2 | O=c1ccn([C@H]2C[C@H](O)[C@@H](CNC(c3ccccc3)(c3ccccc3)c3ccccc3)O2)c(=O)[nH]1 | 35 | 0.24 | 20 |  | 192 | 2.3 | 418 | 1.3 |  | 0.11
3 | O=c1ccn(COCCOC(c2ccccc2)(c2ccccc2)c2ccccc2)c(=O)[nH]1 | 2.1 | 0.7 | 13 |  | 24 | 1.3 |  | 8 |  | 
4 | O=c1ccn([C@H]2C[C@H](F)[C@@H](COC(c3ccccc3)(c3ccccc3)c3ccccc3)O2)c(=O)[nH]1 | 1.1 | 5 | 225 |  | 91 | 2 | 95 | 406 |  | 4.8
5 | O=c1ccn(CCCNC(c2ccccc2)(c2ccccc2)c2ccccc2)c(=O)[nH]1 | 2.4 | 0.2 | 28 |  | 7 | 0.04 | 35 | 0.6 |  | 0.04
6 | O=c1ccn(CCCCCCNC(c2ccccc2)(c2ccccc2)c2ccccc2)c(=O)[nH]1 | > 227 | 1.8 | 35 |  | > 556 | > 29 | > 6670 | 4.4 |  | 0.15
7 | O=c1ccn(C/C=C/COC(c2ccccc2)(c2ccccc2)c2ccccc2)c(=O)[nH]1 | > 1250 | 0.6 | 6 |  | > 1670 | > 167 | > 11100 | 0.8 |  | 0.09
8 | CC(C)(C)[Si](OC[C@@H]1C=C[C@H](n2ccc(=O)[nH]c2=O)O1)(c1ccccc1)c1ccccc1 | > 1250 | 1.2 | 17 | > 1000 | > 833 | > 59 | > 2560 | 0.8 | 3 | 0.21
9 | O=c1ccn(CCC(CO)CNC(c2ccccc2)(c2ccccc2)c2ccccc2)c(=O)[nH]1 (centres undefined) | 21 | 0.2 | 29 |  | 28 | 0.19 | 142 | 0.27 |  | 0.04
